Consider 13 molecules from ChEMBL document CHEMBL3585347, “Isolation of cholinesterase and β-secretase 1 inhibiting compounds from Lycopodiella cernua” (Bioorg Med Chem, 2015).

What is called IC50 is the midpoint of a concentration-inhibition curve. What is called Ki is the equilibrium dissociation constant of an inhibitor or competing ligand from its target. Read a low Ki as higher affinity.

One experiment deals with Beta-secretase 1 (Homo sapiens, UniProt P56817). Briefly: Inhibition of human recombinant BACE1 by fluorescence resonance energy transfer (FRET) assay.
Beta-secretase 1, sequence (P56817 whole entry): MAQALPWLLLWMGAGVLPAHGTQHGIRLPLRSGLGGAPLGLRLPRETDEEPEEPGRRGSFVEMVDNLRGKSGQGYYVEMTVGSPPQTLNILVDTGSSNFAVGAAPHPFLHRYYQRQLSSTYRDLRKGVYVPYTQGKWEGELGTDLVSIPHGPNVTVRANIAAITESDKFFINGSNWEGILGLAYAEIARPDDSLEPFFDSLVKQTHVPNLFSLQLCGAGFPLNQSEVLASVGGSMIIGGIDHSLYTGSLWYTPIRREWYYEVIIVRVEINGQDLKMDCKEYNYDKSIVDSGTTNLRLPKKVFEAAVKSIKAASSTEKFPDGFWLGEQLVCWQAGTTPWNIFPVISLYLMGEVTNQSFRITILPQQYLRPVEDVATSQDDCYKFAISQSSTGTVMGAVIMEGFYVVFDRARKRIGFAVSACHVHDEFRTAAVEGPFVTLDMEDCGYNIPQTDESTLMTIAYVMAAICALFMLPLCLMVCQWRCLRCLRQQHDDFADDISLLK
For experiment [1], the target named is T1, Acetylcholinesterase (Homo sapiens, UniProt P22303). Briefly: Inhibition of AChE (unknown origin) using acetylthiocholine as substrate assessed as substrate hydrolysis by spectrophotometric/Ellman method. A general note: DTNB colorimetry detects thiols as they appear.
T1 sequence (P22303 whole entry): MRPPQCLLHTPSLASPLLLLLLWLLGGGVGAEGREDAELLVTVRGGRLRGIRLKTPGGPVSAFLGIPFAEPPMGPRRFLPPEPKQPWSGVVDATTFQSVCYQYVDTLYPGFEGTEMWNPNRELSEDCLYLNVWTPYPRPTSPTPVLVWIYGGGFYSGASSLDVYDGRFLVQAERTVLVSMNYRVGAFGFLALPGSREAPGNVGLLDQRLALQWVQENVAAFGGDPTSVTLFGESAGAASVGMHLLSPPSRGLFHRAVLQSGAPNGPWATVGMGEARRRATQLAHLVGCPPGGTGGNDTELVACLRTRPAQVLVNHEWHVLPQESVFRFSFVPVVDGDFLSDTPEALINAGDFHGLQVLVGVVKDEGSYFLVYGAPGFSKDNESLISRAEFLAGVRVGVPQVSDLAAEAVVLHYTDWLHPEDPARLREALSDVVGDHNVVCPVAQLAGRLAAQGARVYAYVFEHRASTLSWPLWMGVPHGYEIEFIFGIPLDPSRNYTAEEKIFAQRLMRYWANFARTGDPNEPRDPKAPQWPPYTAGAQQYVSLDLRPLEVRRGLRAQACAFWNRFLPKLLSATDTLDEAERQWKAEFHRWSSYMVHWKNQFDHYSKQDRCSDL
Experiment [2] concerns the target T2, Cholinesterase (Homo sapiens, UniProt P06276). Nature of the experiment: Inhibition of BChE (unknown origin) using butyrylthiocholine as substrate assessed as substrate hydrolysis by spectrophotometric/Ellman method.
Experiment [3] concerns the target T1, Acetylcholinesterase. Nature of the experiment: Mixed type inhibition of AChE (unknown origin) by Lineweaver-Burk plot analysis.
Experiment [4] addresses T1, Acetylcholinesterase. Nature of the experiment: Inhibition of AChE (unknown origin) by Dixon plot analysis.
For experiment [5], the target named is T2, Cholinesterase. Briefly: Inhibition of BChE (unknown origin) by Dixon plot analysis.
In experiment [6] the target is T2, Cholinesterase. Briefly: Mixed type inhibition of BChE (unknown origin) by Lineweaver-Burk plot analysis.

The structures appear in SMILES notation. Calls of active or inactive are those of the source. The calls are words filed in the database; no cut-off is given here.

T2 sequence (P06276 whole entry): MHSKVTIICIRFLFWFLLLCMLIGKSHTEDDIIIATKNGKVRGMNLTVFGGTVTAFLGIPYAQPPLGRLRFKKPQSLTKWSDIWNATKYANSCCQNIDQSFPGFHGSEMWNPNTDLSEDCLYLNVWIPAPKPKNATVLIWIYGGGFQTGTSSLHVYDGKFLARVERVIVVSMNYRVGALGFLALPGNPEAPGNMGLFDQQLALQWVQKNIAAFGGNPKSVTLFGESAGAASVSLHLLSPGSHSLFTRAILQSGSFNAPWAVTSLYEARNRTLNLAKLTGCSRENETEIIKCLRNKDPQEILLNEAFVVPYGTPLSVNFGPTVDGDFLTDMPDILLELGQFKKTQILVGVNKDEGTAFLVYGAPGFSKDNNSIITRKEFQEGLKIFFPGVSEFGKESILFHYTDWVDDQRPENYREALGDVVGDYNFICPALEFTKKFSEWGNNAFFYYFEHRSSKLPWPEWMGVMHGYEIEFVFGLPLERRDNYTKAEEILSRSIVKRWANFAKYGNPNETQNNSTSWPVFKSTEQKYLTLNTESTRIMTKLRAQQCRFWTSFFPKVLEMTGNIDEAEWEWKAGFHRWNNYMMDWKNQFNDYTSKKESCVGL

With `CC1(C)[C@@H](O)CC[C@@]2(C)[C@H]1CC[C@@]1(C)C[C@@]3(O)CC[C@H]4C(C)(C)[C@@H](O)CC[C@]4(C)[C@H]3CC[C@@H]12`, the IC50 at Beta-secretase 1 is above 10 µM; on Acetylcholinesterase [1] it was above 30 µM; on Cholinesterase [2] it was above 30 µM.

Turning to `C[C@@]12CC[C@@H]3[C@](C)(CC[C@H](OC(=O)/C=C/c4ccc(O)cc4)[C@]3(C)C(=O)O)[C@H]1CC[C@H]1C(=CC[C@@H]3[C@]1(C)CC[C@@H](O)[C@]3(C)CO)C2`, the figures for the IC50 on Beta-secretase 1, at Acetylcholinesterase [1] and on Cholinesterase [2] were 1.07 µM, above 30 µM and above 30 µM, respectively.

On to `CC(=O)O[C@H]1CC[C@@]2(C)[C@@H](CC[C@@]3(C)C[C@@]4(O)CC[C@H]5C(C)(C)[C@@H](OC(C)=O)CC[C@]5(C)[C@H]4CC[C@@H]32)C1(C)C`, for which the inhibition result on Acetylcholinesterase [3] was “Active”. In addition, the half-maximal inhibitory concentration (IC50) on Beta-secretase 1 is above 10 µM; on Acetylcholinesterase [1], 0.91 µM; at Cholinesterase [2] it was above 30 µM. This molecule had a Ki on Acetylcholinesterase [4] of 2.49 µM.

Turning to `CC1(C)C(=O)CC[C@@]2(C)[C@H]1CC[C@@]1(C)CC3=CC(=O)[C@H]4C(C)(C)[C@H](O)CC[C@]4(C)[C@H]3CC[C@@H]12`, at Cholinesterase [5], the Ki amounted to 4.78 µM. In addition, the figures for the IC50 at Beta-secretase 1, on Acetylcholinesterase [1] and at Cholinesterase [2] were 0.23 µM, 10.7 µM and above 30 µM, respectively. The inhibition entry on Cholinesterase [6] was “Active”.

For `COc1ccc(C(=O)O[C@H]2CC[C@@]3(C)[C@@H](CC[C@@]4(C)C[C@@]5(O)[C@H](CC[C@@H]43)[C@@]3(C)CC[C@@H](O)C(C)(C)[C@@H]3C[C@@H]5O)[C@@]2(C)C(=O)O)cc1O`, the IC50 was 0.98 µM at Beta-secretase 1, 9.98 µM at Acetylcholinesterase [1] and above 30 µM on Cholinesterase [2].

With `COC(=O)[C@]1(C)[C@@H]2CC[C@@]3(C)CC4=CC(=O)[C@@H]5[C@](C)(CC[C@@H](O)[C@]5(C)CO)[C@H]4CC[C@@H]3[C@@]2(C)CC[C@@H]1O` [LYCERNUIC KETONE A], the IC50 is above 10 µM at Beta-secretase 1, above 30 µM at Acetylcholinesterase [1] and above 30 µM at Cholinesterase [2].

For the molecule `C[C@@]12CC[C@@H]3[C@](C)(CC[C@H](OC(=O)c4ccc(O)cc4)[C@]3(C)C(=O)O)[C@H]1CC[C@@H]1[C@@]3(C)CC[C@@H](O)[C@](C)(CO)[C@@H]3C[C@H](O)[C@@]1(O)C2`, the IC50 was 0.31 µM on Beta-secretase 1, above 30 µM on Acetylcholinesterase [1] and above 30 µM at Cholinesterase [2].

As to `CCCC[C@@H](O)/C=C/C=C/C(=O)O`, the inhibition entry on Acetylcholinesterase [3] was “Active”. Also, the IC50 on Beta-secretase 1 is 6.91 µM; on Acetylcholinesterase [1], 0.22 µM; at Cholinesterase [2], above 30 µM. The same molecule yielded a Ki at Acetylcholinesterase [4] of 1.17 µM.

`C[C@@]12CC[C@@H]3[C@](C)(CC[C@H](O)[C@]3(C)C(=O)O)[C@H]1CC[C@H]1C(=CC(=O)[C@@H]3[C@]1(C)CC[C@@H](O)[C@]3(C)CO)C2`: the IC50 on Beta-secretase 1 was above 10 µM; at Acetylcholinesterase [1] it was above 30 µM; at Cholinesterase [2], above 30 µM.

As to `CC1(C)[C@H](O)CC[C@@]2(C)[C@H]1CC[C@@]1(C)CC3=CC[C@H]4C(C)(C)[C@H](O)CC[C@]4(C)[C@H]3CC[C@@H]12`, the IC50 is above 10 µM on Beta-secretase 1, above 30 µM on Acetylcholinesterase [1] and above 30 µM at Cholinesterase [2].

As to `C[C@@]12CC[C@@H]3[C@](C)(CC[C@H](OC(=O)CCc4ccc(O)cc4)[C@]3(C)C(=O)O)[C@H]1CC[C@H]1C(=CC[C@@H]3[C@]1(C)CC[C@@H](O)[C@]3(C)CO)C2`, the Ki on Cholinesterase [5] was 0.99 µM; on Acetylcholinesterase [4], 7.97 µM. The inhibition entry on Acetylcholinesterase [3] is “Active”. For the same molecule, the IC50 at Beta-secretase 1 was above 10 µM; on Acetylcholinesterase [1], 1.69 µM; at Cholinesterase [2] it was 0.42 µM.

Regarding `CC1(C)[C@H](O)CC[C@]2(C)[C@H]3CC[C@H]4[C@@](C)(CC[C@@H]5[C@]4(C)CC[C@@H](O)[C@]5(C)C(=O)O)CC3=CC(=O)[C@@H]12`, the IC50 on Beta-secretase 1 was above 10 µM; on Acetylcholinesterase [1], above 30 µM; on Cholinesterase [2], above 30 µM.

On Cholinesterase [5], `CC1(C)[C@H](O)CC[C@@]2(C)[C@H]1CC[C@@]1(C)CC3=CC[C@H]4C(C)(C)[C@@H](O)CC[C@]4(C)[C@H]3CC[C@@H]12` came in with a Ki of 4.88 µM. The IC50 at Beta-secretase 1 is above 10 µM; on Acetylcholinesterase [1], above 30 µM; at Cholinesterase [2], 1.37 µM. Moreover, the inhibition result on Cholinesterase [6] is “Active”.
